Structures are written as SMILES. Values after ≈ are worked out from the molar mass of the structure shown.

A word on the kinetic solubility: it is the concentration staying in solution when a stock, usually in DMSO, is diluted into the medium.

The conditions of this data set: buffer; pH 7.4; 200.0 µM.
On to `CCOc1ccc2[nH]c3c(=O)n(CCC4=CCCCC4)cnc3c2c1`, for which the solubility (kinetic) came to 10.7 µg/mL (≈ 31.7 µM).

As to `Cc1ccc(C(=O)Nc2ccc(NC(=O)c3ccc(C)o3)cc2)o1`, the solubility (kinetic) was 1.7 µg/mL (≈ 5.24 µM).

For the compound `N#Cc1ccc(S(=O)(=O)N2CCN(c3ncccn3)CC2)cc1`, the solubility (kinetic) amounted to 1.9 µg/mL (≈ 5.77 µM).

In the case of `Cc1nn(C)c(Cl)c1CN1CCN(C2CCCC2)C(CCO)C1` (stereo not drawn), the kinetic solubility is greater than 51.1 µg/mL.

As for `COc1cc([N+](=O)[O-])ccc1NC(=O)CN1CCc2cc(OC)c(OC)cc2C1`, the kinetic solubility amounted to 34.1 µg/mL (≈ 84.9 µM).

Take `CCOc1ccccc1C(=O)NCCCCNC(=O)c1ccccc1OCC`: the kinetic solubility came to 10.2 µg/mL (≈ 26.5 µM).

`Nc1ncc([N+](=O)[O-])c(N2CCCCCC2)n1` showed a solubility (kinetic) greater than 35.6 µg/mL.

As to `CCCCn1c(N)c(N(CC)C(=O)c2cccc(C)c2)c(=O)[nH]c1=O`, the solubility (kinetic) was greater than 51.7 µg/mL.

With `COc1ccc(NC(=O)c2ccc3c(c2)NC(=O)CS3)cc1`, the kinetic solubility was 10.8 µg/mL (≈ 34.4 µM).

Take `CC(C)(C)NC(=O)COC(=O)CCC(=O)c1ccc(F)cc1`: the kinetic solubility is greater than 46.4 µg/mL.

`Cn1c(=O)oc2cc(S(=O)(=O)NCc3cccnc3)ccc21` yielded a kinetic solubility of 30.5 µg/mL (≈ 95.5 µM).

For the compound `COc1ccccc1CNC(=O)Cn1c(=O)oc2cc(Cl)ccc21`, the kinetic solubility came out at 1.7 µg/mL (≈ 4.9 µM).

The compound `CC(=O)NC(c1ccc(C(C)C)cc1)c1c(O)ccc2ccccc12` (stereo not drawn) showed a kinetic solubility of less than 0.7 µg/mL.

As for `CC(=O)c1ccc(O)c(CSC2=NCCS2)c1`, the kinetic solubility came out at 35.2 µg/mL (≈ 132 µM).

As to `O=C1CCCc2ccccc2N1Cc1ccccc1`, the kinetic solubility was determined as 37.5 µg/mL (≈ 149 µM).

`CCN(CCO)c1ncnc2onc(-c3ccc(F)cc3)c12` returned a kinetic solubility greater than 45.3 µg/mL.

Take `O=C(OCC(=O)N1CCCCCC1)c1ccc[nH]c1=O`: the solubility (kinetic) is greater than 41.7 µg/mL.

As to `Cc1csc(Nc2ccc(C(=O)O)cc2)n1`, the solubility (kinetic) was greater than 35.1 µg/mL.

`CC1CN(C(=S)Nc2ccccc2)CC(C)O1` (stereo not drawn): the solubility (kinetic) stood at 35.4 µg/mL (≈ 141 µM).

In turn, `O=C(NCCc1ccc(F)cc1)c1cc(=O)c2ccccc2o1` yielded a kinetic solubility of 9.4 µg/mL (≈ 30.2 µM).

The compound `Cn1c(=O)c2[nH]c(C3CCCC3)nc2n(C)c1=O` registered a kinetic solubility greater than 37.2 µg/mL.

With `Fc1cccc(Cl)c1CNCc1cccnc1`, the solubility (kinetic) was greater than 37.6 µg/mL.

In turn, `O=C(Nc1ccc(Cl)cc1)Nc1ccon1` displayed a kinetic solubility of 26.7 µg/mL (≈ 112 µM).

Turning to `OC(CNCCc1c[nH]c2ccccc12)C(F)(F)F` (stereo not drawn), the kinetic solubility is greater than 40.8 µg/mL.

Compound `COC(=O)c1ccc(COc2ncnc3sccc23)cc1` had a kinetic solubility of 17 µg/mL (≈ 56.6 µM).

For `Cc1ccc(OCC(=O)NC2CCS(=O)(=O)C2)c(C)c1` (stereo not drawn), the solubility (kinetic) was greater than 44.6 µg/mL.

The compound `CCN(CC(=O)Nc1cccc(OC)c1)C(=O)c1ccncc1` gave a solubility (kinetic) of 37.2 µg/mL (≈ 119 µM).

For the compound `O=Cc1ccccc1OCCN1CCCC1=O`, the solubility (kinetic) amounted to 33.8 µg/mL (≈ 145 µM). This solubility kinetic and that of the compound before are within 1.5-fold of each other.

In turn, `N#Cc1ccccc1NC(=O)COc1ccccc1C(=O)Nc1ccccc1` showed a solubility (kinetic) of 6.6 µg/mL (≈ 17.8 µM).

Take `Cc1cccc(NC(=O)CC2(CC(=O)O)CCCC2)c1`: the kinetic solubility was determined as 41.2 µg/mL (≈ 150 µM).

As for `CC(=O)c1ccc(S(=O)(=O)N2CCC(C(=O)Nc3ncc(C)s3)CC2)cc1`, the solubility (kinetic) was 3 µg/mL (≈ 7.36 µM). This solubility kinetic lies about 14-fold lower than the previous one.

The compound `Cc1cc(C)c2[nH]c(C)c(CN3CCCCCC3)c(=O)c2c1` came in with a solubility (kinetic) greater than 44.8 µg/mL.

On to `COc1cc2c(cc1OC)C(C)N(S(=O)(=O)c1ccc(C)cc1)CC2` (stereo not drawn), for which the solubility (kinetic) turned out to be 26.8 µg/mL (≈ 74.1 µM).

`CC1CC2(CCCC2)Nc2ccc(F)cc21.Cl` (stereo not drawn) yielded a solubility (kinetic) of 0.7 µg/mL.

For `Fc1ccc(CNC(=S)NCc2ccc(F)cc2)cc1`, the solubility (kinetic) stood at 6.4 µg/mL (≈ 21.9 µM). This solubility kinetic is about 9.1-fold higher than that of the compound before.

For the compound `COc1cc(OC)c(C(=O)NCc2ccco2)cc1OC`, the solubility (kinetic) was greater than 43.7 µg/mL.

The compound `O=C(c1ccc(-c2ccc(Cl)cc2Cl)o1)N1CCOCC1` had a kinetic solubility of 4.2 µg/mL (≈ 12.9 µM).

For `O=C(Nc1csc([N+](=O)[O-])c1)Nc1c(Cl)cccc1Cl`, the kinetic solubility turned out to be 1.9 µg/mL (≈ 5.72 µM).

For `C#CCn1ccc(O)c(Cc2c(F)cccc2Cl)c1=O`, the solubility (kinetic) is greater than 43.8 µg/mL.

Compound `COC(=O)c1c(C)oc(C)c1S(=O)(=O)NCC1CC1` showed a solubility (kinetic) greater than 43.1 µg/mL.

`CCc1c(-c2ccccc2)[n+](=O)c2c(n1[O-])CCC2`: the solubility (kinetic) is greater than 38.4 µg/mL.

`O=c1nc(-c2ccccc2)c2cc(SC(F)F)ccc2[nH]1` registered a solubility (kinetic) of 1.4 µg/mL (≈ 4.6 µM).

For `COc1ccc(C(=O)NCC(C)NC(=O)c2ccc(OC)c(OC)c2)cc1OC` (stereo not drawn), the kinetic solubility turned out to be 8.9 µg/mL (≈ 22.1 µM). Against the preceding compound, the solubility kinetic is about 6.4-fold higher.

In turn, `CCOCc1c(C(=O)NC2CCCCCC2)oc2ccccc12` yielded a kinetic solubility of 0.9 µg/mL (≈ 2.85 µM).

Take `O=C(c1ccccc1)C(O)C(c1ccccc1)N1CCOCC1` (stereo not drawn): the solubility (kinetic) was greater than 46.7 µg/mL.

For `CC(C)CCC(C)NC(=O)c1ccc2nccnc2c1` (stereo not drawn), the kinetic solubility came to 34.6 µg/mL (≈ 128 µM).

As to `O=C(CN1CCCC1)N1CCN(c2ccccc2)CC1`, the kinetic solubility is greater than 41 µg/mL.

In turn, `CC(C)OP(=O)(OC(C)C)C(C)NC(=O)Cc1ccccc1` (stereo not drawn) registered a solubility (kinetic) of 44.4 µg/mL (≈ 136 µM).

For `N#C/C=C(/c1ccc(F)cc1)N1CCOCC1`, the kinetic solubility was greater than 34.8 µg/mL.

As to `CCCCNC(=O)c1cc(-c2ccc3c(c2)OCO3)on1`, the solubility (kinetic) came out at 0.3 µg/mL (≈ 1.04 µM).

Compound `Cc1c(C(=O)NC(C)C2CC3CCC2C3)cccc1[N+](=O)[O-]` (stereo not drawn) returned a kinetic solubility of 34.3 µg/mL (≈ 113 µM). Compared with the last compound, the solubility kinetic is about 110-fold higher.

In the case of `CCn1cnc2c(oc3ccccc32)c1=O`, the kinetic solubility worked out at 31.9 µg/mL (≈ 149 µM).

On to `CCOc1cc(-c2nc3n(c(=O)c2C#N)CCS3)ccc1O`, for which the kinetic solubility was found to be 5.7 µg/mL (≈ 18.1 µM).

The values above are taken from PubChem BioAssay AID1996.
